Results reported in US6835382B2, “Ii peptide therapeutics to enhance antigen presentation” (University of Massachusetts, priority 1996, dated 2004).

Test system: murine E^d MHC class II allele
Test: simultaneous assay, E^d allele (A20 APC, G28.C9 T hybridoma, HEL106-116; HT-2 [3H]TdR readout)
Format: cell-based
Conditions: simultaneous assay, Table 14, versus AE114 / AE301; E^d and E^k
Description: Examples 1-4 (Tables 1-18) will be briefly considered in order to establish the concept of tolerance discussed above. These examples describe experimental results observed in the so-called “simultaneous” assay. In the simultaneous assay four principle components are cultured together for a 24 hour period. […] The degree of stimulation of that second, indicator cell by the interleukins which had been released from the activated T cell hybridoma in the primary culture is measured by quantitating tritiated thymidine deoxyribose {[^3H]TdR} uptake into the DNA of the HT-2 indicator cells of that second culture.
In the “simultaneous assay” the four components of the assay are cultured together for a 24 h period. […] The degree of stimulation of that second, indicator cell by the interleukins which had been released from the activated T cell hybridoma in the primary culture is measured by quantitating tritiated thymidine deoxyribose {[^3H]TdR} uptake into the DNA of the HT-2 indicator cells of that second culture. […]

Ac-LR (mL) KLPK-NH2 [AE302]
reduction in activity on substitution of 3-methionine by N-methyl leucine: 50-70%
